From patent US20230399287A1, “NOVEL COMPOUNDS” (Sitryx Therapeutics Limited, priority 2020, published 2023)

Legend:
[1] = Hepatocyte stability assay (mouse); format: in vitro ADME; settings: mouse, cryopreserved hepatocytes, 10 μM compound, 60 min, read-out: T½
How it was run: (§1)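 Cryopreserved human or mouse hepatocytes (0.5×10^6 cells/mL in Leibovitz buffer) were incubated with 10 μM compound (0.1% DMSO) at 37° C in duplicate, alongside a buffer-only control. Samples taken from 0 to 60 min were analysed by LC-MS/MS. Half-life and Clint (μL min^−1 10^−6 cells) came from the ln % remaining versus time slope.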

hepatocytes [2] = experiment: Hepatocyte stability assay (mouse); format: in vitro ADME; settings: 10 μM compound, 60 min
How it was run: as §1

[3] = Hepatocyte stability assay (human); format: in vitro ADME; settings: human, cryopreserved hepatocytes, 10 μM compound, 60 min, read-out: T½
How it was run: as §1

hepatocytes [4] = experiment: Hepatocyte stability assay (human); format: in vitro ADME; settings: 10 μM compound, 60 min
How it was run: as §1

NRF2 = NRF2 +/- GSH activation assay (DiscoverX PathHunter NRF2 translocation kit); format: cell-based; settings: for EC50: Homo sapiens, U2OS, U2OS PathHunter cells
IL-1β = experiment: THP-1 AlphaLISA IL-1β cytokine assay; format: cell-based; settings: for IC50: Homo sapiens, THP-1, differentiated THP-1 cells, LPS 24 hr then Nigericin 1 hour
How it was run: (§2)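 THP-1 cells differentiated with PMA for 72 h, pre-incubated with compound for 30 min, primed with LPS for 24 h, then given nigericin for 1 h at 37 °C. IL-1β and IL-6 in supernatants were read by AlphaLISA. % inhibition was set against ±LPS controls and IC50 taken from concentration–response curves.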

IL-6 = experiment: THP-1 AlphaLISA IL-6 cytokine assay; format: cell-based; settings: for IC50: Homo sapiens, THP-1, differentiated THP-1 cells, LPS 24 hr then Nigericin 1 hour
How it was run: as §2

[5] = +GSH, normalised to dimethyl fumarate high control
[6] = −GSH, normalised to dimethyl fumarate high control
[7] = THP-1 cells, statement in words

Row | Structure (SMILES) | half-life at 10 μM [1] [h] | Clint (hepatocytes [2]) [μL min^−1 10^−6 cells] | half-life at 10 μM [3] [h] | Clint (hepatocytes [4]) [μL min^−1 10^−6 cells] | Emax (NRF2; +GSH, data from repeated experiments) [%] | Emax (NRF2; [5]) [%] | EC50 (NRF2; +GSH) [µM] | EC50 (NRF2; −GSH) [µM] | Emax (NRF2; −GSH, data from repeated experiments) [%] | Emax (NRF2; [6]) [%] | IC50 (IL-1β) [µM] | cytokine-lowering potencies for IL-1β compared to dimethyl itaconate, dimethyl fumarate and 4-octyl itaconate (IL-1β; [7]) | IC50 (IL-6) [µM] | cytokine-lowering potencies for IL-6 compared to dimethyl itaconate (IL-6; [7])
1 | C=C(CC(=O)OC1(c2ccc(C(F)(F)F)cc2)CCC1)C(=O)O [Example 1, 2-methylene-4-oxo-4-(1-(4-(trifluoromethyl)phenyl)cyclobutoxy)butanoic acid] | 2.52 | 13 | 1.93 | 11 | 14 | 10 | > 100 | > 100 | 17 | 37 | 0.8 | much improved cytokine-lowering potencies | 62 | improved cytokine-lowering potencies
2 | C=C(CC(=O)OCc1ccc(C(F)(F)F)cc1)C(=O)O [Example 13, 2-methylene-4-oxo-4-((4-(trifluoromethyl)benzyl)oxy)butanoic acid] | 0.617 | 42 | > 7.67 | <3 |  | 25 | > 100 | 38.7 |  | 54 | 5.9 |  | > 100 | 
3 | C=C(CC(=O)OC1(c2ccc(C(F)(F)F)nn2)CCC1)C(=O)O [Example 62, 2-methylene-4-oxo-4-(1-(6-(trifluoromethyl)pyridazin-3-yl)cyclobutoxy)butanoic acid] | 7.23 | 4 | > 7.67 | <3 |  | 4 | > 100 | > 100 |  | 1 | 5 |  | > 31.6 | 
4 | C=C(CC(=O)OC1(c2ccc(-c3ccc(C(F)(F)F)cc3)cc2)CCC1)C(=O)O [Example 26, 2-methylene-4-oxo-4-(1-(4′-(trifluoromethyl)-[1,1′-biphenyl]-4-yl)cyclobutoxy)butanoic acid] | < 0.05 | >460 | 0.1 | 238 |  | 34 | > 100 | 24.1 |  | 88 | 42 |  | 3.7 | 
5 | C=C(CC(=O)OC1(c2ccc(C(F)(F)F)cc2)CC1)C(=O)O [Example 11, 2-methylene-4-oxo-4-(1-(4-(trifluoromethyl)phenyl)cyclopropoxy)butanoic acid] | 1.18 | 24 | 3.62 | 6 |  | 0 | > 100 | > 100 |  | 11 | 1.4 |  | > 100 | 
6 | C=C(CC(=O)OC1(c2ccc(SC(F)(F)F)cc2)CCC1)C(=O)O [Example 9, 2-methylene-4-oxo-4-(1-(4-((trifluoromethyl)thio)phenyl)cyclobutoxy)butanoic acid] | 0.633 | 44 | 1.52 | 15 |  | 6 | > 100 | > 100 |  | 14 | 2.8 |  | > 100 | 
7 | C=C(CC(=O)OC(C)(C)c1ccc(C(F)(F)F)cc1)C(=O)O [Example 2, 2-methylene-4-oxo-4-((2-(4-(trifluoromethyl)phenyl)propan-2-yl)oxy)butanoic acid] | 0.583 | 35 | 2.83 | 8 |  | 0 | > 100 | > 100 |  | 0 | 0.8 |  | > 63.1 | 
